Bridge positions count the residues as written; N and C are the ends. Peptide text beside a SMILES is read from it.
Experiments:
[1] = target: Transcription factor AP1 (Homo sapiens, UniProt P01100+P05412); test: Inhibition of Fos-Jun dimer formation (unknown origin) by EMSA method; assay type: protein-complex assay
[2] = target: Transcription factor Jun (Mus musculus) (UniProt P05627); test: Inhibition of AP-1-mediated transcriptional activation in lipopolysaccharide-stimulated mouse RAW 264.7 cells assessed ratio of luciferase activity normalized to Renilla luciferase activity by luciferase reporter gene assay
Transcription factor Jun (Mus musculus), sequence (P05627 whole entry): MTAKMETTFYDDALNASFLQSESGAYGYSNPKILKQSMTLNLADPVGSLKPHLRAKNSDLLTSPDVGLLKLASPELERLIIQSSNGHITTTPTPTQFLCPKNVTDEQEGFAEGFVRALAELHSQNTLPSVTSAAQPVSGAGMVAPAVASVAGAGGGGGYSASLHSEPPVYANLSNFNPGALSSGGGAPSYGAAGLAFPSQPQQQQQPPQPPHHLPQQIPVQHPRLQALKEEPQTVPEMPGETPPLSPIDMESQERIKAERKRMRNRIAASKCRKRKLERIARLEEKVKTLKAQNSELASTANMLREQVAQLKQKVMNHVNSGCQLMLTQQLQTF

[3] = target: T1, Transcription factor Jun (Homo sapiens, UniProt P05412); test: Inhibition of AP-1-mediated transcriptional activation in human Jurkat cells by luciferase reporter gene assay; assay type: cell-based
T1 sequence (P05412 whole entry): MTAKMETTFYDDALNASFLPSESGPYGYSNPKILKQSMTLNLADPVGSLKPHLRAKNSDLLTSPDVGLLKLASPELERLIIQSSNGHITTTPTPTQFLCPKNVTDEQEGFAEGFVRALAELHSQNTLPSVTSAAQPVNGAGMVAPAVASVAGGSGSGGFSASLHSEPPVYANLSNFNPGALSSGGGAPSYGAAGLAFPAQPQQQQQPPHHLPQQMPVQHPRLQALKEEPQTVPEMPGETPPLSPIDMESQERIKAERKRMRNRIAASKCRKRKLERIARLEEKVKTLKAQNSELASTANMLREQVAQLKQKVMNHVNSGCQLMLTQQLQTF

[4] = target: T1, Transcription factor Jun; test: Inhibition of AP-1-mediated transcriptional activation in human HeLa cells at 1 ug/ml; assay type: cell-based
[5] = target: T1, Transcription factor Jun; test: Inhibition of AP-1-mediated transcriptional activation in human HeLa cells at 10 ug/ml; assay type: cell-based
[6] = target: T1, Transcription factor Jun; test: Inhibition of AP-1-mediated transcriptional activation in HEK293 cells by luciferase reporter gene assay; assay type: cell-based
[7] = target: Nuclear factor NF-kappa-B complex (Homo sapiens, UniProt Q00653+P19838+Q04206); test: Inhibition of NF-kappaB-mediated transcriptional activation in human Jurkat cells by luciferase reporter gene assay; assay type: cell-based
Nuclear factor NF-kappa-B complex, sequence (P19838 1-433 limits assumed): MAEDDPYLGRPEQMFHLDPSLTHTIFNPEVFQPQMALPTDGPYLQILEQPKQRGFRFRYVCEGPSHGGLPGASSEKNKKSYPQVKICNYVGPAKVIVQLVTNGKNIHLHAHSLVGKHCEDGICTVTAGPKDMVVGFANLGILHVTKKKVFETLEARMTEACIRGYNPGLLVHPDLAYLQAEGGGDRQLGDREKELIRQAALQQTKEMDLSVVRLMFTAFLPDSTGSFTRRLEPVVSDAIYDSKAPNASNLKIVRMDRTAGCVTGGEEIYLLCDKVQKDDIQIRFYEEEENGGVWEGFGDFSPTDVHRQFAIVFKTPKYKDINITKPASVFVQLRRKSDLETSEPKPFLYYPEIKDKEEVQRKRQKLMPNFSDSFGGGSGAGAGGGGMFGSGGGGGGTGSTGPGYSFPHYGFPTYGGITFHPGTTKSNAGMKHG
Nuclear factor NF-kappa-B complex, sequence (Q00653 1-454 limits assumed): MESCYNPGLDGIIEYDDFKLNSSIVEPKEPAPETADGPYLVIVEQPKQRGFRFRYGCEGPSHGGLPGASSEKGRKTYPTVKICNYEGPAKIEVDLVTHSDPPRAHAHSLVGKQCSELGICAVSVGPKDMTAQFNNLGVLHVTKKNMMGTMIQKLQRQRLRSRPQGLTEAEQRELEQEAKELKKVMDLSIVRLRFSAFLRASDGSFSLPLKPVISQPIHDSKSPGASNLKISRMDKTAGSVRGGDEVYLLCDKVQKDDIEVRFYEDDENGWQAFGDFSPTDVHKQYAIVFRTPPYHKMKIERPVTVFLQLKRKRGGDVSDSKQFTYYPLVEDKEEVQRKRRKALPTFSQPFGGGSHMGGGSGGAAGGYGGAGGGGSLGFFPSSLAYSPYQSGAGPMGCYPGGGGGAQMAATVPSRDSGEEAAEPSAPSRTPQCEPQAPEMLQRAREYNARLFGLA
Nuclear factor NF-kappa-B complex, sequence (Q04206 whole entry): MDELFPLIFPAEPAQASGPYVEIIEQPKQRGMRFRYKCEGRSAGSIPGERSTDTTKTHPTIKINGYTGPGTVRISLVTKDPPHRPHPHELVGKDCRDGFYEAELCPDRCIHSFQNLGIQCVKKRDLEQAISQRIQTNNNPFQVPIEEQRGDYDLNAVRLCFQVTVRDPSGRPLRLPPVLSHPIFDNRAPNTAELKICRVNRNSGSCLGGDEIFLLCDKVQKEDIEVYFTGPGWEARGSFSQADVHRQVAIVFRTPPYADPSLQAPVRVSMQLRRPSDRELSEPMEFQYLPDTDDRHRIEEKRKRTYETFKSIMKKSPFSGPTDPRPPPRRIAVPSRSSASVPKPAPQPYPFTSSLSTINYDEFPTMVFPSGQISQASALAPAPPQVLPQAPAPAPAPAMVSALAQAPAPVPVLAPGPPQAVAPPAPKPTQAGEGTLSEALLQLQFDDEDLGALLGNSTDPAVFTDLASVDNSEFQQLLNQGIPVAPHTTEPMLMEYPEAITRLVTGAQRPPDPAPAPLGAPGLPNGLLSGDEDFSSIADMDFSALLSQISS

[8] = species on record: Rattus norvegicus; test: Antiinflammatory activity in adjuvant-induced arthritis rat model assessed as reduction in swelling in noninjected foot; assay type: functional
[9] = target: T1, Transcription factor Jun; test: Inhibition of AP-1 bZIP domain DNA binding activity (unknown origin) by ELISA
[10] = target: T1, Transcription factor Jun; test: Inhibition of UVB-induced AP-1 activation (unknown origin) by cell-based assay
[11] = species on record: Gallus gallus; test: Antiangiogenic activity in chicken embryo assessed as inhibition of neovascularization at 10 ug; assay type: functional
[12] = target: T1, Transcription factor Jun; test: Inhibition of AP-1 (unknown origin) expressed in TPA-stimulated mouse NIH3T3 cells by luciferase reporter gene assay; assay type: cell-based

Transcription factor AP1, sequence (P05412 whole entry): as the sequence (P05412 whole entry) above
Transcription factor AP1, sequence (P01100 whole entry): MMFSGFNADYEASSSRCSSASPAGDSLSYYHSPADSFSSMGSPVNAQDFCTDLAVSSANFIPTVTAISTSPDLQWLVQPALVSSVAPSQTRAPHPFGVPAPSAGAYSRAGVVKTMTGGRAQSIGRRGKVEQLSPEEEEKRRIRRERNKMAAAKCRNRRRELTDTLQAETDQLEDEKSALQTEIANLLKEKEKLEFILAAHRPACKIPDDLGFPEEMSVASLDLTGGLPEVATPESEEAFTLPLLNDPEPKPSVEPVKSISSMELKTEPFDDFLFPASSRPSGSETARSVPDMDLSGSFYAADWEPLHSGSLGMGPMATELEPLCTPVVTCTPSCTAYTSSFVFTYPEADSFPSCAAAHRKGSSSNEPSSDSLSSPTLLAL

C[C@H]1[C@H](C)CC[C@]2(COC(=O)c3ccccc3C(=O)O)CC[C@]3(C)C(=CC[C@@H]4[C@@]5(C)CC[C@H](OC(=O)c6ccccc6C(=O)O)C(C)(C)[C@@H]5CC[C@]43C)[C@H]12
IC50 [1]: 4 µM

C[C@@]12CC[C@@H]3[C@@](CC1=O)(C2)[C@@H](O)C[C@H]1[C@@]3(C)[C@@H](O)CC[C@@]1(C)C(=O)O
Ratio [2]: 2.98

CCOC(=O)c1cnc(N(C)N2C(=O)C=C(C)C2=O)nc1CC
IC50 [3]: 35 nM

CCOC(=O)c1cnc(NN2C(=O)C=C(C)C2=O)nc1-c1ccc(C)s1
IC50 [3]: 45 nM

O=C(Nc1cc(C(F)(F)F)cc(C(F)(F)F)c1)c1cc(Cl)ccc1O
inhibition [4]: 42.4%
inhibition [5]: 89.1%

CNc1nc(C)c(-c2nc3ccccc3c(=O)n2-c2ccc(Cl)cc2)s1
IC50 [6]: 1.2 µM

C[C@@]12CC[C@H]3[C@]4(C)CCC[C@@](C)(C(=O)O)[C@H]4C[C@H](O)[C@]3(CC(=O)O1)C2
Ratio [2]: 2.39

CCOC(=O)c1cnc(-c2ccccc2)nc1NN1C(=O)C=C(C)C1=O
IC50 [3]: 100 nM
IC50 [7]: 100 nM

COc1cccc2nc(-c3cccs3)nc(NN3C(=O)C=C(C)C3=O)c12 [AS-602868]
inhibition (INH) [8]: 65%
IC50 [3]: 8 nM

CCOC(=O)c1cnc(N(C)N2C(=O)C=C(C)C2=O)nc1C(F)(F)F
IC50 [3]: 300 nM

CC1=CC(=O)N(Nc2ncc(-c3coc(C)n3)c(-c3cccs3)n2)C1=O
IC50 [3]: 760 nM

CCOC(=O)c1cnc(NN2C(=O)C=C(C)C2=O)nc1CC
IC50 [3]: 400 nM

O=C(Nc1ccc(C(F)(F)F)cc1C(F)(F)F)c1cc(C(F)(F)F)nc(Cl)n1
IC50 [3]: > 10000 nM

O=C(Nc1cc(Cl)cc(Cl)c1)c1cc(I)ccc1O
inhibition [5]: 75.4%

CC1(C)CC[C@]2(C(=O)O)CC[C@]3(C)C(=CC[C@@H]4[C@@]5(C)CC[C@H](O[C@@H]6O[C@H](C(=O)O)[C@@H](O)[C@H](O[C@@H]7OC[C@H](O)[C@H](O)[C@H]7O)[C@H]6O)C(C)(C)[C@@H]5CC[C@]43C)[C@@H]2C1
IC50 [1]: 130 µM

Cc1ccccc1-n1c(-c2sc(Nc3ccccc3)nc2C)nc2ccccc2c1=O
IC50 [6]: 5.5 µM

CC(=O)N[C@H]1CSSC[C@@H](C(N)=O)NC(=O)CNC(=O)[C@H](CC(=O)O)NC(=O)[C@H](C)NC(=O)[C@H](CC(C)C)NC(=O)[C@H](CC(=O)O)NC(=O)[C@H](CC(C)C)NC(=O)[C@H](CCC(N)=O)NC(=O)CNC1=O (Ac-CGQLDLADGC-NH2; disulfide 1-10)
IC50 [9]: 64 µM

COC(=O)C1=CO[C@@H](O[C@@H]2O[C@H](CO)[C@@H](O)[C@H](O)[C@H]2O)[C@H]2[C@@H]1[C@@H]1O[C@@H]1[C@]2(O)C(=O)O/C=C(\C(=O)O)c1ccc(O)c(OC)c1
IC50 [10]: 29 µM

O=C(Nc1cc(C(F)(F)F)cc(C(F)(F)F)c1)c1cc(I)ccc1O
inhibition [4]: 25.4%
inhibition [5]: 82.4%

Cc1nc(Cl)ncc1C(=O)Nc1cc(C(F)(F)F)cc(C(F)(F)F)c1
IC50 [7]: 50 nM

COC(=O)C1=CO[C@@H](O[C@@H]2O[C@H](CO)[C@@H](O)[C@H](O)[C@H]2O)[C@H]2[C@H]1C(C)=C[C@@]2(O)C(=O)O/C=C(\C(=O)O)c1ccc(O)c(OC)c1
IC50 [10]: 69.6 µM

COc1cc(/C=C/C(=O)/C=C(O)/C=C/c2cc(OC)c(O)c([N+](=O)[O-])c2)cc([N+](=O)[O-])c1O
inhibition (INH) [11]: 68%

O=C(Nc1cc(Cl)cc(Cl)c1)c1cc(Br)ccc1O
inhibition [4]: 39.3%
inhibition [5]: 83.8%

CC(=O)c1cnc(NN2C(=O)C=C(C)C2=O)nc1C(F)(F)F
IC50 [3]: 4400 nM

C[C@@H]1C[C@H]2[C@@H]3CCC4=CC(=O)C=C[C@]4(C)[C@@]3(F)[C@@H](O)C[C@]2(C)[C@@]1(O)C(=O)CO
Ratio [2]: 2.33

CC1=CC(=O)N(Nc2ncc(C(=O)OC(C)(C)C)c(C(F)(F)F)n2)C1=O
IC50 [3]: 210 nM

C[C@@]12CC[C@H]3[C@]4(C)CCC[C@@](C)(C(=O)O)[C@H]4C[C@H](O)[C@]3(CC1=O)C2
Ratio [2]: 2.69

CC(C)COc1ccc(C(=O)c2ccc(OCC(C)C)c(CCC(=O)O)c2)cc1
IC50 [12]: 5 µM

CCc1nc(NN2C(=O)C=C(C)C2=O)ncc1-c1coc(C)n1
IC50 [3]: 830 nM

C[C@@]12CC[C@@H]3[C@@](CC[C@H]4[C@@]3(C)CCC[C@@]4(C)C(=O)O)(COC1=O)C2
Ratio [2]: 1.88

C[C@@]12CC[C@@H]3[C@@](CC[C@H]4[C@@]3(C)CCC[C@@]4(C)C(=O)O)(C/C1=N\O)C2
Ratio [2]: 4.87

CC1=C[C@@]2(CC#N)CC[C@H]3[C@@](C)(CCC[C@@]3(C)C(=O)O)[C@@H]2CC1
Ratio [2]: 2.85

O=C(Nc1cc(C(F)(F)F)cc(C(F)(F)F)c1)c1nnc(Cl)cc1C(F)(F)F
IC50 [3]: 10000 nM
IC50 [7]: 10000 nM
